In patent US8865901B2, “Gain-of-function Bcl-2 inhibitors” (priority 2009, dated 2014):
Where “and” joins values, the source holds several entries; their conditions need not be identical. Identical values can stand only once. Like-named read-outs stand apart in the source and are kept apart here.

Experiments:
[1] = test system: TAMH cells overexpressing Bcl-xL (TAMH-Bcl-xL, Tabx2s); experiment: Cytotoxicity / apoptosis induction in TAMH cells overexpressing Bcl-xL; assay type: cell-based
Method: (§1) To examine the sensitivity of cells over-expressing Bcl-xL to various mitochondrial inhibitors and apoptosis inducers, cell lines over-expressing Bcl-xL were prepared and tested according to Hockenberry et al. U.S. Pat. No. 7,241,804, hereby incorporated by reference in its entirety. Competitive binding of compounds with fluorescent antimycin A3, and competitive binding of compounds with BH3 peptide and Bcl-2. Competitive binding of compounds with BH-3 peptide were also measured using Bcl-xL as previously described. Id.
(§2) Cell lines were grown in RPMI 1640 medium (Gibco, Grand Island, N.Y.) supplemented with 5% fetal bovine serum (Hyclone, Logan, Utah). Also shown is the ratio of TAMH cells expressing Bcl-xL to those expressing A142L (WT:142L). The assay measures the potency of various compounds with respect to inducing apoptosis in these cells.
(§3) The compounds described in Example 2 were tested for their ability to inhibit Bcl-2 gain-of-function in TAMH cells, TAMH cells overexpressing […] (TAMH-Bcl-xL), TAMH cells transfected with Neo vector (Neo), TAMH cells over expressing a variant of Bcl-xL (A142L) using the methods of Example 1. 3-6.
(§4) The effects of the compounds described in Example 8 on TAMH cells, TAMH cells overexpressing Bcl-xL (TAMH-Bcl-xL), TAMH cells transfected with Neo vector (Neo), TAMH cells over expressing a variant of Bcl-xL (A142L) is shown in Table 8
(§5) The effects of the compounds described in Example 10 on TAMH cells, TAMH cells overexpressing Bcl-xL (TAMH-Bcl-xL), TAMH cells transfected with Neo vector (Neo), TAMH cells over expressing a variant of Bcl-xL (A142L) is shown in the following Table 10

[2] = test system: TAMH cells transfected with Neo vector (Neo); experiment: Cytotoxicity / apoptosis induction in TAMH cells transfected with Neo vector; assay type: cell-based
Method: as §1, §2, §3, §4, §5

[3] = Table 10, read-out: IC50 TAMH Bcl-XL
[4] = Table 10, read-out: IC50 TAMH Neo
[5] = Table 13, read-out: IC50 TAMH Bcl-xL
[6] = Table 13, read-out: IC50 TAMH Neo
[7] = Table 5, TAMH cells overexpressing Bcl-xL (Tabx2s), read-out: 2S EC50
[8] = Table 5, TAMH Neo cells, read-out: Neo EC50
[9] = Table 15, read-out: IC50 TAMH Bcl-XL
[10] = Table 15, read-out: IC50 TAMH Neo

## CN(C)Cc1cc(Cl)cc(Sc2cc(Cl)cc(CN(C)C)c2O)c1O [Compound 62419]
[1]; Table 10
  Fold Select. (Neo/Bcl-XL): 1.8
[1]; [3]
  IC50: 20 µM
[2]; [4]
  IC50: 36.1 µM

## CC(C)(C)c1ccc(O)c(Sc2cc(C(C)(C)C)ccc2O)c1 [Compound 2855]
[1]; Table 11
  Fold Select. (Neo/Bcl-XL): 0

## Oc1ccc(Br)cc1Sc1cc(Br)ccc1O [Compound 1049]
[1]; Table 10
  Fold Select. (Neo/Bcl-XL): 2.2
[1]; [3]
  IC50: 1.9 µM
[2]; [4]
  IC50: 4.2 µM

## Cc1cc(C)c(O)c(Cc2cc(Cl)cc(Cc3cc(C)cc(C)c3O)c2O)c1 [Compound 48167]
[1]; Table 13
  Fold Select. (Neo/Bcl-xL): 4
[1]; [5]
  IC50: 1.4 µM
[2]; [6]
  IC50: 5.6 µM

## COc1ccc(C)cc1Cc1cc(C)cc(Cc2cc(C)ccc2O)c1OC [Compound 0036]
[1]; [7]
  EC50: 1.9 µM
[2]; [8]
  EC50: 17.5 µM

## O=[N+]([O-])c1ccc(S(=O)(=O)c2ccccc2)c2nonc12 [Compound 0219]
[1]; Table 6, TAMH cells overexpressing Bcl-xL (Tabx2s), read-out: 2S EC50
  EC50: 7.6 µM

## Cc1cc(Sc2cc(C)cc(C(C)(C)C)c2O)c(O)c(C(C)(C)C)c1 [Compound 67488]
[1]; Table 10
  Fold Select. (Neo/Bcl-XL): 6.8
[1]; [3]
  IC50: 14.6 µM

## Oc1ccc(Sc2ccc(O)cc2O)c(O)c1 [Compound 59828]
[1]; Table 11
  Fold Select. (Neo/Bcl-XL): 0

## Cc1cc(O)c(Sc2c(O)cc(C)cc2C(C)(C)C)c(C(C)(C)C)c1 [Compound 59685]
[1]; Table 10
  Fold Select. (Neo/Bcl-XL): 5.5
[1]; [3]
  IC50: 12 µM
[2]; [4]
  IC50: 66.4 µM

## O=C(O)c1cc(Cl)cc(Cc2cc(Cl)cc(C(=O)O)c2O)c1O [Compound 48684]
[1]; Table 11
  Fold Select. (Neo/Bcl-XL): 0

## OCc1cc(Cl)cc(Cc2cc(Cl)cc(Cc3cc(Cl)cc(CO)c3O)c2O)c1O [Compound 48445]
[1]; Table 13
  Fold Select. (Neo/Bcl-xL): 2.5
[1]; [5]
  IC50: 1.8 µM
[2]; [6]
  IC50: 4.5 µM

## Oc1c(CCl)cc(Cl)cc1Cc1cc(Cl)cc(Cc2cc(Cl)cc(CCl)c2O)c1O [Compound 48444]
[1]; Table 13
  Fold Select. (Neo/Bcl-xL): 9.3
[1]; [5]
  IC50: 1.3 µM
[2]; [6]
  IC50: 12.1 µM

## Oc1c(Cl)cc(Cl)cc1Sc1cc(Cl)cc(Cl)c1O [Compound 47129]
[1]; Table 10
  Fold Select. (Neo/Bcl-XL): 4.6
[1]; [3]
  IC50: 0.5 µM
[2]; [4]
  IC50: 2.3 µM

## Cc1cc(Cc2cc(Cc3cc(C)cc(C(C)(C)C)c3O)c(C)cc2C)c(O)c(C(C)(C)C)c1 [Compound 57725]
[1]; Table 13
  Fold Select. (Neo/Bcl-xL): −0

## O=[N+]([O-])c1ccc(S(=O)(=O)Cc2ccccc2)c([N+](=O)[O-])c1 [Compound 122657]
[1]; Table 15
  Fold Selectivity (Neo/Bcl-XL): 3.9
[1]; [9]
  IC50: 3.5 µM
[2]; [10]
  IC50: 13.5 µM

## Cc1cc(Cc2cc(Br)ccc2O)c(O)c(Cc2cc(Br)ccc2O)c1 [Compound 0039]
[1]; [7]
  EC50: 0.7 µM
[2]; [8]
  EC50: 2.9 µM

## [O-][S+](c1cc(Cl)cc(Cl)c1O)c1cc(Cl)cc(Cl)c1O [Compound 523910]
[1]; Table 10
  Fold Select. (Neo/Bcl-XL): 6.4
[1]; [3]
  IC50: 2.2 µM
[2]; [4]
  IC50: 14.2 µM

## Cc1cc(Cc2cc(C)cc(C(C)(C)C)c2O)c(O)c(C(C)(C)C)c1 [Compound 7781]
[1]; Table 10
  Fold Select. (Neo/Bcl-XL): 2.8
[1]; [3]
  IC50: 1.6 µM
[2]; [4]
  IC50: 4.5 µM

## CN(C)Cc1cc(Cl)cc(Cc2cc(Cl)cc(CN(C)C)c2O)c1O.Cl [Compound 39242]
[1]; Table 11
  Fold Select. (Neo/Bcl-XL): 0

## CC(C)(C)c1cc(C(C)(C)c2ccccc2)cc(Cc2cc(C(C)(C)c3ccccc3)cc(C(C)(C)C)c2O)c1O [Compound 288938]
[1]; Table 10
  Fold Select. (Neo/Bcl-XL): 3.3
[1]; [3]
  IC50: 28 µM
[2]; [4]
  IC50: 93.1 µM

## Oc1ccc2ccccc2c1Cc1c(O)ccc2ccccc12 [Compound 5992]
[1]; [3]
  IC50: 3 µM and 4.4 µM
[2]; [4]
  IC50: 12.2 µM and 8 µM

## O=[N+]([O-])c1ccc(S(=O)(=O)Cc2ccccc2)c2nonc12 [Compound 228148]
[1]; Table 8, read-out: TAMH Bcl-xL
  EC50: 6 µM
[1]; Table 8, selectivity ratio
  Neo/Bcl-xL: 3.8
[1]; Table 15
  Fold Selectivity (Neo/Bcl-XL): 3.8
[1]; [9]
  IC50: 6 µM
[2]; Table 8, read-out: TANH Neo
  EC50: 22.5 µM
[2]; [10]
  IC50: 22.5 µM

## COc1cc(C)ccc1C(=O)c1ccc(C)cc1OC [Compound 143532]
[1]; Table 11
  Fold Select. (Neo/Bcl-XL): 0

## COc1ccc(C(=O)N/N=C2\C(=O)c3c(C)cc(C)cc3CC2(C)C)cc1 [Compound 310343]
[1]; Mus musculus, TAMH, Table 16, read-out: TAMH Bcl-XL IC50
  IC50: 25 µM
[1]; Table 16
  Fold Selectivity (Neo/Bcl-XL): >4
[2]; Mus musculus, TAMH, Table 16, read-out: TAMH Neo IC50
  IC50: > 100 µM
